Assay results taken from US5358712A, “Radiopharmaceutical agents for the detection of Alzheimer's disease” (Regents of the University of Minnesota, priority 1993, dated 1994).

Experiments:
vesamicol receptor [1] = conditions: cited from earlier work
vesamicol receptor [2] = experiment: Blocking experiments: inhibition of radiotracer accumulation in the rat by coadministered compound; format: in vivo, rat (male Wistar); conditions: rat
In short: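 Male Wistar rats (n=3/group) got iv radiotracer, alone or coadministered with blocker (e.g. (+)/(−)-HBrPP·HCl 1.3 μmol/kg, vesamicol·HCl 1.1 μmol/kg, or 0.31–0.53 mg/kg in other series). Blood and tissues taken 60 min post-injection to assess radiotracer accumulation.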

vesamicol receptor [3] = experiment: Ligand displacement studies in vivo; parameters: species or system rat (male Wistar); conditions: rat, vesamicol iv 30 minutes after radiotracer
Protocol: To determine if vesamicol could displace bound [^125 I]5 in vivo, a blocking dose of vesamicol was injected intravenously 30 minutes following the administration of (-)-[^125 I]5.
Two groups of male Wistar rats (n=3) were used in this study. Each animal initially received, while under anesthesia, an iv dose of (-)-5, (9.5 μCi) in 0.1 ml of 50% aqueous ethanol. After 30 min. the control group received an iv dose of 50% aqueous ethanol (0.1 ml) while the second group received an iv dose of (dl)-vesamicol hydrochloride (1.1 μmol/kg) in 0.1 ml of 50% aqueous ethanol. All animals were sacrificed, as described above, at one hour following radiotracer injection. Data was analyzed as described above.

[4] = tested on: vesicular acetylcholine storage; conditions: cited from earlier work
[5] = tested on: rodents and other laboratory animals; conditions: cited from earlier work
[6] = rat
Protocol: (§1) Four groups of male Wistar rats (with four animals per group) weighing 200-350 g were used in these experiments. Each animal received, while under ether anesthesia, an intravenous injection of the radiotracer (10-20 μCi) dissolved in 0.1 ml of 50% aqueous ethanol. At 5, 30, and 60 and 180 min. post-injection, blood was collected from the anesthetized animals by cardiac puncture, and the animal was immediately sacrificed by cardiectomy. The organs and tissues of interest were harvested, transferred to preweighed tubes and counted in a Beckman gamma counter. The tubes were subsequently reweighed to give the weight of the corresponding tissues. Preweighed tubes containing ^1 -ml samples of a 1:100 dilution of the injection dose were also counted and used as reference for calculating the tissue accumulation of radioactivity. The accumulation of radiotracer was expressed as a percentage of injected dose per gram of tissue.

[7] = Tissue distribution (biodistribution) of radioiodinated compound in the rat; conditions: rat
Protocol: as §1

[8] = iv, 60 min, + (dl)-vesamicol HCl 0.3 (Table 3) or 0.31 mg/kg, 60 min
[9] = iv, 60 min, radiotracer only (control)

Structure (SMILES): O[C@@H]1CCCC[C@H]1N1CCC(c2ccccc2)CC1 (relative stereo) [vesamicol, trans-2-(4-phenylpiperidino)cyclohexanol]
- dissociation from the receptor (vesamicol receptor [1]): dissociate too quickly
- reversibility of binding to the vesamicol receptor (vesamicol receptor [1]): binds reversibly
- blocking of the accumulation of [^125 I]5 in vivo, relative potency (vesamicol receptor [2]; vesamicol 1.1 μmol/kg, (+)-7 and (-)-7 1.3 μmol/kg, coadministered): equipotent
- displacement of bound (-)-[^125 I]5 radioactivity from brain or heart (vesamicol receptor [3]): fails to displace
- displacement of bound (-)-[^125 I]5 radioactivity from brain or heart (vesamicol receptor [3]; listed as (dl)-vesamicol): can not readily displace
- inhibition of ACh uptake into cholinergic synaptic vesicles and of quantal release [4]: inhibit both the uptake of ACh into cholinergic synaptic vesicles and quantal release
- respiratory paralysis and death [5]: induces respiratory paralysis and death

Structure (SMILES): OC(CN1CCC(c2ccccc2)CC1)c1ccc([125I])cc1 (single isomer, unassigned; (+)) [(+)-[^125 l]13] [1-(4-Iodophenyl)-2-(4-phenylpiperidinyl)ethanol]
- efflux from the brain [6]: much slower
- Brain: Blood Ratio (vesamicol receptor [2]; [8]): 7.02
- Heart: Blood Ratio (vesamicol receptor [2]; [8]): 2.48
- radioactivity in blood (vesamicol receptor [2]; [8]): 0.03 % dose/g of tissue
- Brain: Blood Ratio (vesamicol receptor [2]; [9]): 17.86
- Heart: Blood Ratio (vesamicol receptor [2]; [9]): 4.41
- decrease of concentration in the brain ([7]; 3 hours post-injection vs initial, listed as (+)[^123 I]13): 35%
- initial accumulation in the rat brain ([7]; initial, listed as (+)-[^125 I]13): 2.75 % of the injected dose
- Brain: Blood Ratio ([7]; iv, 5 min): 14.8
- Heart: Blood Ratio ([7]; iv, 5 min): 13.8
- Brain: Blood Ratio ([7]; iv, 60 min): 41.7
- Heart: Blood Ratio ([7]; iv, 60 min): 8.2
- radioactivity in lung ([7]; iv, 60 min): 1.77 % dose/g
- Brain: Blood Ratio ([7]; iv, 180 min): 37.4
- Heart: Blood Ratio ([7]; iv, 180 min): 5.7
- radioactivity in blood ([7]; iv, 180 min): 0.02 % dose/g
- radioactivity in brain ([7]; iv, 180 min): 0.93 % dose/g
- radioactivity in heart ([7]; iv, 180 min): 0.14 % dose/g
- radioactivity in kidney ([7]; iv, 180 min): 1.53 % dose/g
- radioactivity in liver ([7]; iv, 180 min): 1.97 % dose/g
- radioactivity in lung ([7]; iv, 180 min): 0.62 % dose/g
- radioactivity in muscle ([7]; iv, 180 min): 0.13 % dose/g
- radioactivity in spleen ([7]; iv, 180 min): 0.77 % dose/g
